# Values of other authors as cited in patent US8168440B2, “Polymeric sulfated surfactants for capillary electrophoresis (CE) and CE-mass spectrometry (CE-MS)” (Georgia State University, priority 2006, dated 2012).
# What was measured:
# [1] = in vivo
Compound,Part of the dosage taken excreted in the urine [1],Serum half-life [1] [h],pKa
"CN[C@@H](C)[C@@H](O)c1ccccc1 (racemic) [(±)-pseudoephedrine, pseudoephedrine]",about one-half,5 to 8,
"CC(Oc1ccccc1Cl)C(=O)O (racemic) [(±)-2-PPA, 2-(2-chlorophenoxy)propionic acid]",,,3.11±0.1
